Columns and labels:
Proteus vulgaris OX.8 = assay: Intraperitoneal Proteus vulgaris infection in mice: oral β-lactam with or without oral lactoferrin (Example 4); assay type: in vivo; conditions: for ED50: ddY mice n=6, survivors at one week; for simultaneous administration with lactoferrin reduced the ED50s to: fraction of ED50 of antibiotic alone, lactoferrin 0.5 mg/mouse
Experimental: Example 4-The efficacy potentiation of lactoferrin was examined using mice infected with Proteus vulgaris OX.8. Each group of six mice, strain ddY, four weeks old, were intraperitoneally infected with P. vulgaris suspended in 3% gastric mucin at a dose of 2 x 10^6 cells per mouse. One hour after the injection, lactoferrin (0.5 mg/mouse) was orally given simultaneously with cephalosporins. […]
Consequently, the efficacy potentiation of cephalosporin due to simultaneous treatment with lactoferrin is not restricted merely to the pathogens belonging to the genus Escherichia and Klebsiella, but also includes Proteus.

[1] = system: Escherichia coli strain c-11; assay: Intraperitoneal E. coli infection in mice: oral cephalosporin with or without oral lactoferrin (Example 3); assay type: in vivo; conditions: for ED50: ddY mice n=6, survivors at one week; for ED50s reduced by simultaneous administration of lactoferrin to: fraction of ED50 of antibiotic alone, lactoferrin 1 mg/mouse
Experimental: Example 3-groups of six male mice strain ddY, four weeks old, were used in this experiment. They were intraperitoneally infected with 3% mucin suspension of Escherichia coli strain c-11 at a dose of 1 X 10^6 cells per mouse. Oral cephalosporin antibiotic was administered one hour after the injection simultaneously with bovine milk lactoferrin (26% iron saturation), 1 mg/mouse. Each control was given cephalosporin alone. The mice were observed one week after the injection and survivors were regarded as completely cured. […]

Escherichia coli c 11 [2] = assay: Timing of lactoferrin administration with cefaclor in E. coli infected mice (Example 7); assay type: in vivo; conditions: control (no lactoferrin)
From the text: Example 7-The timing of lactoferrin administration is very important not only from a clinical point of view, but also from an economical point of view, since it indicates whether or not the treatment with lactoferrin is prophylactic, or curative, or both. The timing was studied using the same model as described in Example 6. Cefaclor was orally given one hour after injection of the bacteria. […]

Escherichia coli c 11 [3] = assay: Optimal dose of lactoferrin with cefaclor in E. coli infected mice (Example 6); assay type: in vivo; conditions: Lactoferrin dose 0.000 (cefaclor alone)
Experimental: Example 6-Optimal dose of lactoferrin was studied using mice strain ddY (n=6), four weeks old. The mice were intraperitoneally infected with Escherichia coli c 11 at a dose of 1 x 10^6 cells per mouse, and they were treated once orally with a mixture of lactoferrin and cefaclor one hour after the injection.

[4] = Serum concentrations of cephalosporins with or without lactoferrin, bioassay with Bacillus subtilis (Experimental Example 2)
Experimental: Experimental Example 2-The effect of lactoferrin on intestinal absorption of cephalosporin antibiotics was studied using male ddY mice (n=6), five weeks old.
The cephalosporin antibiotics used were cephalexin, cefixime, cefaclor and cefroxazine, and the serum , concentrations were determined by bioassay using Bacillus subtilis. The doses of the antibiotics and lactoferrin were 0.5 mg per mouse of each.

Escherichia coli c 11 [5] = assay: Intraperitoneal E. coli infection in mice: other chemotherapies with or without lactoferrin (Example 5); assay type: in vivo; conditions: for ED50: gentamicin subcutaneous, ddY mice n=6; for potentiation of efficacy of the chemotherapy by lactoferrin: lactoferrin 0.5 mg/mouse oral, in vivo
From the text: Example 5-The antimicrobial activities of chemotherapies were compared with or without lactoferrin treatment. The antimicrobial agents used were new quinolones, aminoglycoside antibiotic, gentamicin, erythromycin, chloramphenicol and minocycline. The efficacy was compared between the controls and lactoferrin groups. Mice strain ddY, four weeks old, were randomly allocated into groups (n=6) and intraperitoneally infected with Escherichia coli c 11 at a dose of 1 x 10^6 cells per mouse. One hour after the injection the chemotherapies and lactoferrin (0.5 mg/mouse) were simultaneously given orally except gentamicin was given subcutaneously since it is unabsorable from the intestinal tract. Evaluation of potentiation of the chemotherapies by lactoferrin is the same as described above. […]

[6] = system: Proteus mirabilis strain 1287; assay: Upper urinary tract infection in mice, kidney colony count (Example 9); assay type: in vivo; conditions: for colony count ratio, lactoferrin (+) to (-): Lactoferrin (+) relative to Lactoferrin (-)
From the text: Example 9-Male ICR mice, five weeks old, were dehydrated overnight, and Proteus mirabilis strain 1287 was inoculated into the bladder at a dose of 2 x 10^5 CFU per mouse. In order for the pathogen to colonize the kidneys, the urethra was closed by a clip for four hours. Ampicillin was orally given to the mice twice daily (10:00 am and 7:00 pm) for two consecutive days with or without oral lactoferrin therapy. On day 3 all mice were sacrificed and the kidneys were dissected ascetically. The kidneys were homogenized in sterile saline and the homogenate was spread over nutrient agar plates to determine the numbers of colonizing bacteria. […]

[7] = antibiotic alone (Lactoferrin -), oral one hour after infection
[8] = antibiotic with Lactoferrin + (0.5 mg/mouse, oral, simultaneous)
[9] = antibiotic with Lactoferrin + (bovine milk lactoferrin 1 mg/mouse, oral, simultaneous)
[10] = mice, oral, lactoferrin simultaneously, blood withdrawn periodically
[11] = agent alone (Lactoferrin -), oral, one hour after infection
[12] = agent with Lactoferrin + (0.5 mg/mouse oral, simultaneous)

Compound | ED50 (Proteus vulgaris OX.8; [7]) | ED50 (Proteus vulgaris OX.8; [8]) | simultaneous administration with lactoferrin reduced the ED50s to (Proteus vulgaris OX.8) | ED50 [1, 7] | ED50 [1, 9] | ED50s reduced by simultaneous administration of lactoferrin to [1] | ED50 (Escherichia coli c 11 [5]; [11]) | ED50 (Escherichia coli c 11 [5]; [12]) | further results
N[C@@H](C(=O)N[C@@H]1C(=O)N2C(C(=O)O)=C(Cl)CS[C@H]12)c1ccccc1 [cefaclor] | 1.790 mg/mouse | 0.058 mg/mouse | 1/3 | 0.75 mg/mouse | 0.38 mg/mouse | 1/2 |  |  | ED50 (Escherichia coli c 11 [2]): 1.846 mg/mouse; ED50 (Escherichia coli c 11 [3]): 1.510 mg/mouse; blood levels of the antibiotics with versus without lactoferrin [4, 10]: virtually the same
CC1=C(C(=O)O)N2C(=O)[C@@H](NC(=O)[C@H](N)c3ccccc3)[C@H]2SC1 [cefalexin] | 0.402 mg/mouse | 0.185 mg/mouse | 1/2 | 8.54 mg/mouse | 1.42 mg/mouse | 1/4 |  |  | blood levels of the antibiotics with versus without lactoferrin ([4]; mouse, in vivo, po): virtually the same
CC1COc2c(N3CCN(C)CC3)c(F)cc3c(=O)c(C(=O)O)cn1c23 (stereo not shown) [ofloxacin] |  |  |  |  |  |  | 0.231 mg/mouse | 0.251 mg/mouse | 
CC[C@H]1OC(=O)[C@H](C)[C@@H](O[C@H]2C[C@@](C)(OC)[C@@H](O)[C@H](C)O2)[C@H](C)[C@@H](O[C@@H]2O[C@H](C)C[C@H](N(C)C)[C@H]2O)[C@](C)(O)C[C@@H](C)C(=O)[C@H](C)[C@@H](O)[C@]1(C)O [erythromycin] |  |  |  |  |  |  |  |  | potentiation of efficacy of the chemotherapy by lactoferrin (Escherichia coli c 11 [5]): potentiated the efficacy
CN(C)c1ccc(O)c2c1C[C@H]1C[C@H]3[C@H](N(C)C)C(O)=C(C(N)=O)C(=O)[C@@]3(O)C(O)=C1C2=O [minocycline] |  |  |  |  |  |  | 1.859 mg/mouse | 0.631 mg/mouse | 
gentamicin |  |  |  |  |  |  | 0.608 mg/mouse | 0.610 mg/mouse | 
CC1(C)S[C@@H]2[C@H](NC(=O)[C@H](N)c3ccccc3)C(=O)N2[C@H]1C(=O)O [ampicillin] | 0.300 mg/mouse | 0.148 mg/mouse | 1/2 |  |  |  |  |  | colony quantity, Lactoferrin (-) ([6]; ampicillin 0.01 mg/mouse): 100,704 CFU/kidney; colony quantity, Lactoferrin (+) ([6]; ampicillin 0.01 mg/mouse with lactoferrin 1 mg per mouse): 58 CFU/kidney; colony count ratio, lactoferrin (+) to (-) ([6]; ampicillin 0.01 mg/mouse): 1/1736; colony quantity, Lactoferrin (-) ([6]; ampicillin 0.1 mg/mouse): 63,216 CFU/kidney; colony quantity, Lactoferrin (+) ([6]; ampicillin 0.1 mg/mouse with lactoferrin 1 mg per mouse): 36 CFU/kidney; colony count ratio, lactoferrin (+) to (-) ([6]; ampicillin 0.1 mg/mouse): 1/1756; colony quantity, Lactoferrin (-) ([6]; ampicillin 1.0 mg/mouse oral twice daily for two days, ICR mice, kidneys on day 3): 88 CFU/kidney; colony quantity, Lactoferrin (+) ([6]; ampicillin 1.0 mg/mouse with lactoferrin 1 mg per mouse): 0 CFU/kidney; colony count ratio, lactoferrin (+) to (-) ([6]; ampicillin 1.0 mg/mouse): <1/88
C=CC1=C(C(=O)O)N2C(=O)[C@@H](NC(=O)/C(=N\OCC(=O)O)c3csc(N)n3)[C@H]2SC1 [cefixime] | 0.519 mg/mouse | 0.177 mg/mouse | 1/3 | 1.03 mg/mouse | 0.23 mg/mouse | 1/4 |  |  | blood levels of the antibiotics with versus without lactoferrin [4, 10]: virtually the same
O=C(O)c1cn(C2CC2)c2cc(N3CCNCC3)c(F)cc2c1=O [ciprofloxacin] |  |  |  |  |  |  | 0.200 mg/mouse | 0.214 mg/mouse | 
O=C(N[C@H](CO)[C@H](O)c1ccc([N+](=O)[O-])cc1)C(Cl)Cl [chloramphenicol] |  |  |  |  |  |  | 5.11 mg/mouse | 1.94 mg/mouse | potentiation of efficacy of the chemotherapy by lactoferrin (Escherichia coli c 11 [5]): potentiated the efficacy
COC1=C(C(=O)O)N2C(=O)[C@@H](NC(=O)[C@H](N)C3=CCC=CC3)[C@H]2SC1 [cefroxadine] | 0.606 mg/mouse | 0.312 mg/mouse |  | 1.27 mg/mouse | 0.42 mg/mouse | 1/3 |  |  | blood levels of the antibiotics with versus without lactoferrin [4, 10]: virtually the same
NC1CCN(c2nc3c(cc2F)c(=O)c(C(=O)O)cn3-c2ccc(F)cc2F)C1 (stereo not shown) [tosfloxacin] |  |  |  |  |  |  | 0.013 mg/mouse | 0.009 mg/mouse | 

From patent EP1013282A2, “Pharmaceutical and foodstuff compositions containing transferrins and antibacteral agents for potentiating host defence activity and the treatment of infections” (priority 1992, dated 1993)
